We go through 3 compounds from US20080214535A1, “Amorphous Aprepitant Coprecipitates” (DR. REDDY'S LABORATORIES LTD., priority 2005, published 2008).

Converted amounts (≈) assume the structure as drawn. Like-named read-outs stand apart in the source and are kept apart here.

The conditions of data set [1]: cited from earlier work.
Data set [2] in a line: Solubility comparison: saturated solution in water, absorbance at 210 nm. The data set is classed as physicochemical. The conditions noted are these: room temperature. Here is the method: Solubility studies of different aprepitant powders were conducted. Sufficient aprepitant having either crystalline Form I or II, or in the form of an amorphous povidone coprecipitate, was added to a 25 ml test tube containing 10 ml of water at room temperature to get a saturated solution. The solutions were filtered and filtrate was used to obtain the absorbance at 210 nm. Absorbance was compared to standards prepared by dissolving aprepitant in methanol, then diluting aliquots with water.

For `C[C@@H](O[C@H]1OCCN(Cc2n[nH]c(=O)[nH]2)[C@H]1c1ccc(F)cc1)c1cc(C(F)(F)F)cc(C(F)(F)F)c1` [Aprepitant, 5-[[(2R,3S)-2-[(1R)-1-[3,5-bis(trifluoromethyl)phenyl]ethoxy]-3-(4-fluorophenyl)-4-morpholinyl]methyl]-1,2-dihydro-3H-1,2,4-triazol-3-one], the Solubility in acetonitrile entry in data set [1] (acetonitrile) is recorded as “slightly soluble”. The Solubility in ethanol entry in data set [1] (ethanol) is given as “sparingly soluble”. Moreover, the “Solubility in isopropyl acetate” value in data set [1] (isopropyl acetate) is given as “sparingly soluble”. The Solubility in water result in data set [1] (water) is given as “practically insoluble”.
`C[C@@H](O[C@H]1OCCN(Cc2n[nH]c(=O)[nH]2)[C@H]1c1ccc(F)cc1)c1cc(C(F)(F)F)cc(C(F)(F)F)c1` [crystalline Form I, 5-[[(2R,3S)-2-[(1R)-1-[3,5-bis(trifluoromethyl)phenyl]ethoxy]-3-(4-fluorophenyl)-4-morpholinyl]methyl]-1,2-dihydro-3H-1,2,4-triazol-3-one] returned a Solubility in water in data set [2] of 20 µg/mL (≈ 37.4 µM).
On the same count and under the same terms, the result for `C[C@@H](O[C@H]1OCCN(Cc2n[nH]c(=O)[nH]2)[C@H]1c1ccc(F)cc1)c1cc(C(F)(F)F)cc(C(F)(F)F)c1` [crystalline Form II, 5-[[(2R,3S)-2-[(1R)-1-[3,5-bis(trifluoromethyl)phenyl]ethoxy]-3-(4-fluorophenyl)-4-morpholinyl]methyl]-1,2-dihydro-3H-1,2,4-triazol-3-one] reads 140 µg/mL (≈ 262 µM).
